According to patent publication US11731927B2, “Cocrystals of ubiquinol and compositions comprising them” (Center for Intelligent Research in Crystal Engineering, S.L., priority 2018, dated 2023):

Experiments:
[1] = Stability study, comparative ubiquinol vs cocrystals: storage in a chamber, periodic analysis for ubiquinone and the form detected; format: physicochemical; details: for stability at 25° C. measured by controlling the moment when ubiquinone was detected: "<" ubiquinone detected at least after the indicated days, ">" ubiquinone not detected yet
Procedure: Powder X-Ray diffraction (PXRD) analyses were performed by sandwiching the powder samples between polyester films of 10 micrometres of thickness or polyamide (kapton) films of 15 micrometres of thickness and analysed in a PANalytical X′Pert PRO MPD q/q powder diffractometer of 240 millimetres of radius, in a configuration of convergent beam with a focalizing mirror and a flat sample transmission geometry, in the following experimental conditions: Cu Kα radiation (λ=1.5406 Å); Work power: 45 kV and 40 mA; Incident beam slits defining a beam height of 0.4 millimetres; Incident and diffracted beam 0.02 radians Soller slits; PIXcel detector: Active length=3.347°; 2θ/θ scans from 2 to 40° 2θ with a step size of 0.026° 2θ and a measuring time of 76 seconds per step.
The stability of the different forms has been studied under two experimental conditions. The samples were stored under both conditions inside a Series FD Binder chamber and they were analyzed periodically: • condition A: 25° C. and 57% of relative humidity; • condition B: 40° C. and 75% of relative humidity.
A saturated solution of sodium bromide salt (57% RH) and a saturated solution of sodium chloride (75% RH) were used to control relative humidity.
75% HR by indicating the form detected after the mentioned days. No ubiquinone was detected at least after 14 days.

[2] = as above; format: physicochemical; details: relative humidity not controlled, "<" ubiquinone detected at least after the indicated days, ">" ubiquinone not detected yet
[3] = 25° C.-57% HR, 435 days, ^1: low crystallinity
[4] = 40° C.-75% HR, 14 days, "—^1" (footnote *): the sample absorbed moisture showing a liquid texture
[5] = 40° C.-75% HR, 51 days, ^1: low crystallinity

Compound | form detected ([1]; 25° C.-57% HR, 7 days) | form detected ([1]; 25° C.-57% HR, 14 days) | form detected ([1]; 25° C.-57% HR, time 0) | stability at 25° C. measured by controlling the moment when ubiquinone was detected ([1]; 25° C.-57% HR) | form detected ([1]; 40° C.-75% HR, 7 days) | form detected ([1]; 40° C.-75% HR, time 0) | stability at 25° C. measured by controlling the moment when ubiquinone was detected [2] | form detected ([1]; 25° C.-57% HR, 51 days) | form detected ([1]; 25° C.-57% HR, 119 days) | form detected [1, 3] | form detected [1, 4] | form detected [1, 5] | further results
COc1c(O)c(C)c(CC=C(C)CCC=C(C)CCC=C(C)CCC=C(C)CCC=C(C)CCC=C(C)CCC=C(C)CCC=C(C)CCC=C(C)CCC=C(C)C)c(O)c1OC.O=C(O)c1cc(O)cc(O)c1 [P58-V, Cocrystal of Ubiquinol and 3,5-dihydroxybenzoic Acid] | – | – | – | – | – | – | – | – | – | – | – | – | stability ([1]; compared with cocrystal P58-III): expected to be similar to cocrystal P58-III
Ubiquinol [reference compound] | Form A | mixture Form A and Form B | Form A | <26 days | Form B | Form A | <50 days | – | – | – | – | – | form detected ([1]; 25° C.-57% HR, 26 days): mixture Form B and Ubiquinone; form detected ([1]; 25° C.-57% HR, 37 days): mixture Form B and Ubiquinone; form detected ([1]; 25° C.-57% HR, 62 days, ^2: analyzed by 1H-NMR, confirms presence of Ubiquinone): mixture Form B and Ubiquinone^2; form detected ([1]; 25° C.-57% HR, 130 days): mixture Form B and Ubiquinone; form detected ([1]; 25° C.-57% HR, 300 days): mixture Form B and Ubiquinone; form detected ([1]; 25° C.-57% HR, 446 days): Ubiquinone (low crystallinity)
COc1c(O)c(C)c(CC=C(C)CCC=C(C)CCC=C(C)CCC=C(C)CCC=C(C)CCC=C(C)CCC=C(C)CCC=C(C)CCC=C(C)CCC=C(C)C)c(O)c1OC.O=C(O)c1cccc(O)c1 [P58-VI, Cocrystal of Ubiquinol and 3-Hydroxybenzoic Acid] | P58-VI | P58-VI | P58-VI | >434 days | P58-VI | P58-VI | >64 days | P58-VI | P58-VI | P58-VI^1 | P58-VI | Ubiquinone^1 | form detected ([1]; 25° C.-57% HR, 288 days): P58-VI
Cocrystal Hydrate of Ubiquinol and 3,4-dihydroxybenzoic Acid [P58-III] | P58-III | P58-III | P58-III | – | P58-III | P58-III | – | P58-III | P58-III | P58-III | P58-III | P58-III | form detected ([1]; 25° C.-57% HR, 84 days): P58-III; form detected ([1]; 25° C.-57% HR, 235 days): P58-III; form detected ([1]; 25° C.-57% HR, 405 days): P58-III; form detected ([1]; 25° C.-57% HR, 551 days, ^1: low crystallinity): P58-III^1; form detected ([1]; 40° C.-75% HR, 235 days): Ubiquinone
